From patent publication US10307413B2, “Tetrahydro- and dihydro-isoquinoline PRMT5 inhibitors and uses thereof” (Epizyme, Inc., priority 2013, dated 2019)

Key:
[1] = test system: symmetric di-methyl arginine in Z-138 cells; assay: Z-138 Methylation Assay (In Cell Western for symmetric di-methyl arginine and DNA content); type: cell-based; conditions: Homo sapiens, read-out: ICW EC50
Text: [formula] [formula] Where top and bottom are the normally allowed to float, but may be fixed at 100 or 0 respectively in a 3-parameter fit. The Hill Coefficient normally allowed to float but may also be fixed at 1 in a 3-parameter fit. Y is the % inhibition and X is the compound concentration.
RPMI/Glutamax medium, penicillin-streptomycin, heat inactivated fetal bovine serum, and D-PBS were purchased from Life Technologies, Grand Island, N.Y., USA. Odyssey blocking buffer, 800CW goat anti-rabbit IgG (H+L) antibody, and Licor Odyssey infrared scanner were purchased from Licor Biosciences, Lincoln, Nebr., USA. Symmetric di-methyl arginine antibody was purchased from EMD Millipore, Billerica, Mass., USA. 16% Paraformaldehyde was purchased from Electron Microscopy Sciences, Hatfield, Pa., USA.
Cell Treatment, in Cell Western (ICW) for Detection of Symmetric Di-Methyl Arginine and DNA Content.
Z-138 cells were seeded in assay medium at a concentration of 50,000 cells per mL to a 384-well cell culture plate with 50 μL per well. Compound (100 nL) from 384 well source plates was added directly to 384 well cell plate. Plates were incubated at 37° C., 5% CO2 for 96 hours. […] Plates were incubated at room temperature for 30 minutes then incubated at 37° C., 5% CO2 for 5 hours. After the incubation, 40 μL per well of 8% paraformaldehyde in PBS (16% paraformaldahyde was diluted to 8% in PBS) was added to each plate and incubated for 30 minutes. […] Next 30 μL per well of Odyssey blocking buffer were added to each plate and incubated 1 hour at room temperature. Blocking buffer was removed and 20 μL per well of primary antibody was added (symmetric di-methyl arginine diluted 1:100 in Odyssey buffer with 0.1% Tween 20 (v/v)) and plates were incubated overnight (16 hours) at 4° C. Plates were washed 5 times with 100 μL per well of wash buffer. Next 20 μL per well of secondary antibody was added (1:200 800CW goat anti-rabbit IgG (H+L) antibody, 1:1000 DRAQ5 (Biostatus limited) in Odyssey buffer with 0.1% Tween 20 (v/v)) and incubated for 1 hour at room temperature. The plates were washed 5 times with 100 μL per well wash buffer then 1 time with 100 μL per well of water. Plates were allowed to dry at room temperature then imaged on the Licor Odyssey machine which measures integrated intensity at 700 nm and 800 nm wavelengths. Both 700 and 800 channels were scanned.
First, the ratio for each well was determined by:
Each plate included fourteen control wells of DMSO only treatment (minimum inhibition) as well as fourteen control wells for maximum inhibition treated with 3 μM of a reference compound (Background wells). The average of the ratio values for each control type was calculated and used to determine the percent inhibition for each test well in the plate. Reference compound was serially diluted three-fold in DMSO for a total of nine test concentrations, beginning at 3 μM. Percent inhibition was determined and IC50 curves were generated using triplicate wells per concentration of compound. Percent Inhibition=100−

Z-138 cell line = assay: Z-138 Proliferation Assay (Cell Titer Glo, 5 days); type: cell-based; conditions: Homo sapiens, 120 h; Z-138 cells, 5 days; read-out: Proliferation EC50
Text: RPMI/Glutamax medium, penicillin-streptomycin, heat inactivated fetal bovine serum were purchased from Life Technologies, Grand Island, N.Y., USA. V-bottom polypropylene 384-well plates were purchased from Greiner Bio-One, Monroe, N.C., USA. Cell culture 384-well white opaque plates were purchased from Perkin Elmer, Waltham, Mass., USA. Cell-Titer Glo® was purchased from Promega Corporation, Madison, Wis., USA. SpectraMax M5 plate reader was purchased from Molecular Devices LLC, Sunnyvale, Calif., USA.
A compound source plate was prepared by performing triplicate nine-point 3-fold serial dilutions in DMSO, beginning at 10 mM (final top concentration of compound in the assay was 20 μM and the DMSO was 0.2%). A 100 nL aliquot from the compound stock plate was added to its respective well in the cell plate. […] After addition of compounds, assay plates were incubated for 5 days at 37° C., 5% CO2, relative humidity >90%.
Cell viability was measured by quantitation of ATP present in the cell cultures, adding […] of Cell Titer Glo® reagent to the cell plates. Luminescence was read in the SpectraMax M5 microplate reader. The concentration of compound inhibiting cell viability by 50% was determined using a 4-parametric fit of the normalized dose response curves.

Row | EC50 [1] | SMILES | EC50 (Z-138 cell line)
1 | < 100 nM | CNC(=O)CN1CCN(Cc2cccc(C(=O)NCC(O)CN3CCc4ccccc4C3)c2)CC1 (stereo not shown) [Compound 173] | 1000 to 10000 nM
2 | < 100 nM | O=C(NC[C@H](O)CN1CCc2ccccc2C1)c1ccnc(NCc2ccncc2)c1 [Compound 189] | 101 to 1000 nM
3 | < 100 nM | C[C@H]1COCCC1Nc1cccc(C(=O)NC[C@H](O)CN2CCc3ccccc3C2)c1 (stereo partly shown) [Compound 213] | 101 to 1000 nM
4 | 101 to 1000 nM | O=C(NCC(O)CN1CCc2ccccc2C1)c1ccc2nccnc2c1 (stereo not shown) [Compound 85] | 10000 to 50000 nM
5 | < 100 nM | CC(=O)N1CCC(Oc2cc(C(=O)NC[C@H](O)CN3CCc4ccccc4C3)ncn2)CC1 [Compound 287] | 101 to 1000 nM
6 | < 100 nM | CC(C)N1CCC(Nc2cccc(C(=O)NCC(O)CN3CCc4ccccc4C3)c2)C1 (stereo not shown) [Compound 101] | 10000 to 50000 nM
7 | < 100 nM | [2H]C1([2H])Cc2ccccc2C([2H])([2H])N1C[C@@H](O)CNC(=O)c1cc(NC2COC2)ncn1 [Compound 337] | 101 to 1000 nM
8 | < 100 nM | CN(CCN(C)S(C)(=O)=O)c1cc(C(=O)NC[C@H](O)CN2CCc3ccccc3C2)ccn1 [Compound 263] | 1000 to 10000 nM
9 | < 100 nM | CS(=O)(=O)N1CC(Nc2cc(C(=O)NC[C@H](O)CN3CCc4ccccc4C3)ccn2)C1 [Compound 278] | 101 to 1000 nM
10 | < 100 nM | O=C(NC[C@H](O)CN1CCc2ccccc2C1)c1ccc(OC2CCN(Cc3ccccc3)CC2)cc1 [Compound 330] | < 100 nM
11 | < 100 nM | CS(=O)(=O)N1CCN(Cc2cccc(C(=O)NCC(O)CN3CCc4ccccc4C3)c2)CC1 (stereo not shown) [Compound 91] | 1000 to 10000 nM
12 | < 100 nM | O=C(NC[C@H](O)CN1CCc2ccccc2C1)c1ccnc(OC2CCOCC2)c1 [Compound 323] | 101 to 1000 nM
13 | 101 to 1000 nM | Cc1cc2ncc(C(=O)NC[C@H](O)CN3CCc4ccccc4C3)c(C)n2n1 [Compound 275] | 1000 to 10000 nM
14 | 101 to 1000 nM | Cc1ccc(NC2CCOCC2)cc1C(=O)NCC(O)CN1CCc2ccccc2C1 (stereo not shown) [Compound 95] | 1000 to 10000 nM
15 | 101 to 1000 nM | O=C(NCC(O)CN1CCc2ccccc2C1)c1cccc(CNC2CCOCC2)c1 (stereo not shown) [Compound 15, N-(3-(3,4-dihydroisoquinolin-2(1H)-yl)-2-hydroxypropyl)-3-(((tetrahydro-2H-pyran-4-yl)amino)methyl)benzamide] | 10000 to 50000 nM
16 | < 100 nM | O=C(NC[C@H](O)CN1CCc2ccccc2C1)c1nccc2ccccc12 [Compound 272] | 1000 to 10000 nM
17 | < 100 nM | O=C(NC[C@H](O)CN1CCc2ccccc2C1)c1cc(NC2CCOC2)ncn1 (stereo partly shown) [Compound 230] | 101 to 1000 nM
18 | < 100 nM | O=C(NCC(O)CN1CCc2ccccc2C1)c1cc(NC2CCOCC2)ncn1 (stereo not shown) [Compound 63] | 101 to 1000 nM
19 | < 100 nM | O=C(NCC(O)CN1CCc2ccccc2C1)c1ccc2ncccc2c1 (stereo not shown) [Compound 68] | 1000 to 10000 nM
20 | 101 to 1000 nM | O=C(NC[C@H](O)CN1CCc2ccccc2C1)c1ccnc(NCC2CNCCO2)c1 (stereo partly shown) [Compound 238] | 10000 to 50000 nM
21 | < 100 nM | CCN(c1cccc(C(=O)NCC(O)CN2CCc3ccccc3C2)c1C)C1CCOCC1 (stereo not shown) [Compound 41] | 1000 to 10000 nM
22 | 101 to 1000 nM | O=C(NC[C@H](O)CN1CCc2ccccc2C1)c1ccc2c(c1)OCCO2 [Compound 274] | 1000 to 10000 nM
23 | 1000 to 10000 nM | Cn1ccc(C(=O)NCC(O)CN2CCc3ccccc3C2)n1 (stereo not shown) [Compound 149] | > 20000 nM
24 | < 100 nM | O=C(NCC(O)CN1CCc2ccccc2C1)c1ccc(OC2CCN(CC(F)(F)F)C2)cc1 (stereo not shown) [Compound 199] | 1000 to 10000 nM
25 | < 100 nM | CN(c1cc(C(=O)NC[C@H](O)CN2CCc3ccccc3C2)ncn1)C1CCOCC1 [Compound 261] | 1000 to 10000 nM
26 | < 100 nM | O=C(NC[C@H](O)CN1CCc2ccccc2C1)c1ccnc(NCC2CCCCN2)c1 (stereo partly shown) [Compound 237] | 1000 to 10000 nM
